Results published in ChEMBL document CHEMBL1201862, “PubChem BioAssay data set” (2004).
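Exposure lasted 48 hours, with cells grown in 96-well plates and compounds tested at five concentrations. Here, GI50 denotes the concentration required for 50% inhibition of growth.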 Activity calls are given as the source filed them. No stated cut-off is given here; in the data, active = GI50 up to about 1.1 µM and inactive = higher.

What was measured:
Assay in all cases: NCI-60 cell line screen, 48 h
786-0 = tested on: 786-0
ACHN = tested on: ACHN
DMS-273 = tested on: DMS-273
HCT-116 = tested on: HCT-116
HL-60 = tested on: HL-60
HOP-62 = tested on: HOP-62
K562 = tested on: K562
KM12 = tested on: KM12
M14 = tested on: M14
MOLT-4 = tested on: MOLT-4
OVCAR-5 = tested on: OVCAR-5
OVCAR-8 = tested on: OVCAR-8
SF-295 = tested on: SF-295
SF-539 = tested on: SF-539
TK-10 = tested on: TK-10
NCI-H226 = tested on: NCI-H226
BT-549 = tested on: BT-549
MDA-MB-435 = tested on: MDA-MB-435
MDA-N = tested on: MDA-N
T47D = tested on: T47D

Measured: GI50

COC(=O)c1nc(NC#N)nc(O)c1C
inactive: 786-0 > 100 µM | ACHN > 73.6 µM | DMS-273 > 69.3 µM | HCT-116 > 61.1 µM | HL-60 > 100 µM | HOP-62 > 100 µM | K562 34.9 µM | KM12 > 100 µM | M14 > 100 µM | MOLT-4 > 100 µM | OVCAR-5 > 100 µM | OVCAR-8 > 100 µM | SF-295 > 100 µM | SF-539 > 55.8 µM | TK-10 > 100 µM

CC(=O)OCCC(O[Si](c1ccccc1)(c1ccccc1)C(C)(C)C)C(C)(C)O (centres undefined)
inactive: 786-0 27.4 µM | ACHN 29.4 µM | DMS-273 27 µM | HCT-116 17.3 µM | K562 31.6 µM | KM12 23.3 µM | M14 39 µM | MOLT-4 24 µM | NCI-H226 19.5 µM | OVCAR-5 > 100 µM | OVCAR-8 38.9 µM | SF-295 21.6 µM | SF-539 25.4 µM | TK-10 34.4 µM

O=C1C2c3[nH]c4ccccc4c3C3CCCCCCC3C2C(=O)N1c1ccccc1 (centres undefined)
inactive: 786-0 8.67 µM | ACHN 8.24 µM | DMS-273 11.1 µM | K562 4.52 µM | KM12 33.6 µM | M14 6.85 µM | MOLT-4 > 10 µM | OVCAR-8 4.32 µM | SF-295 2.91 µM | SF-539 12 µM | TK-10 12 µM

O=C1C2CCC(C2)C12CC1(c3ccccc3)C(=O)c3ccccc3N1O2 (centres undefined)
inactive: 786-0 > 100 µM | ACHN > 100 µM | DMS-273 81.8 µM | HCT-116 > 100 µM | HL-60 42.1 µM | HOP-62 > 100 µM | K562 > 100 µM | M14 > 100 µM | MOLT-4 42.6 µM | NCI-H226 > 100 µM | OVCAR-8 > 100 µM | SF-295 94.6 µM | SF-539 > 100 µM

CCOC(=O)C(C(CC(=O)OC)NC(=O)OCc1ccccc1)C1(C)OCCO1 (centres undefined)
inactive: 786-0 > 100 µM | ACHN > 100 µM | DMS-273 > 100 µM | HCT-116 > 100 µM | HL-60 > 100 µM | HOP-62 > 100 µM | K562 > 100 µM | M14 > 100 µM | MOLT-4 > 100 µM | NCI-H226 > 100 µM | OVCAR-8 > 100 µM | SF-295 > 100 µM | SF-539 > 100 µM | TK-10 > 100 µM

C[C@@H](NC1CCCC[C@@H]1O)c1ccccc1 (some centres undefined)
inactive: 786-0 > 100 µM | ACHN > 100 µM | DMS-273 > 100 µM | HCT-116 > 100 µM | HL-60 > 100 µM | HOP-62 > 100 µM | K562 > 100 µM | KM12 > 100 µM | M14 > 100 µM | MOLT-4 > 100 µM | NCI-H226 > 100 µM | OVCAR-5 > 100 µM | OVCAR-8 > 100 µM | SF-295 > 100 µM | TK-10 > 100 µM

COc1ccc(/C=C(/c2ccccc2)c2c(C)cc(C)c(/C(=C\c3ccc(OC)cc3)c3ccccc3)c2/N=N/c2cc(C)cc(C)c2)cc1
inactive: 786-0 13.7 µM | ACHN > 56.5 µM | BT-549 45.3 µM | HCT-116 10 µM | HL-60 10.3 µM | HOP-62 20.9 µM | K562 11.7 µM | KM12 9.64 µM | M14 44.6 µM | MDA-MB-435 14.6 µM | MDA-N 24 µM | MOLT-4 15.7 µM | NCI-H226 34.2 µM | OVCAR-5 > 84.5 µM | OVCAR-8 17.9 µM | SF-295 24.7 µM | SF-539 42.1 µM | T47D 4.9 µM | TK-10 21.9 µM

N#CC1=C(S)N(C2OC(CO)C(O)C(O)C2O)C(c2ccccc2)=CC1c1ccco1 (centres undefined)
inactive: 786-0 38 µM | ACHN > 10 µM | BT-549 > 100 µM | HCT-116 21.3 µM | HL-60 > 100 µM | HOP-62 44.6 µM | K562 42.7 µM | KM12 41.9 µM | M14 50.5 µM | MDA-MB-435 > 100 µM | MDA-N 93.3 µM | MOLT-4 35.2 µM | NCI-H226 > 100 µM | OVCAR-5 > 100 µM | OVCAR-8 40.4 µM | SF-295 24.6 µM | SF-539 35.2 µM | T47D 4.36 µM | TK-10 44.1 µM

CCOC(=O)c1cc(-n2nnc3ccccc32)cn1C
inactive: 786-0 > 10 µM | ACHN > 10 µM | BT-549 > 10 µM | HCT-116 > 10 µM | HL-60 > 10 µM | HOP-62 > 10 µM | K562 > 10 µM | KM12 > 10 µM | M14 > 10 µM | MDA-MB-435 > 10 µM | MDA-N > 10 µM | MOLT-4 > 10 µM | NCI-H226 > 10 µM | OVCAR-5 > 10 µM | OVCAR-8 > 10 µM | SF-295 > 10 µM | SF-539 > 10 µM | T47D > 10 µM | TK-10 > 10 µM

O=C(O)CC(NC(=O)/C(=C/c1ccccc1O)NC(=O)c1ccccc1)C(=O)O (centres undefined)
inactive: 786-0 > 100 µM | ACHN 40.8 µM | BT-549 57 µM | HCT-116 > 100 µM | HL-60 25.8 µM | HOP-62 > 100 µM | K562 74.1 µM | KM12 > 100 µM | M14 > 100 µM | MDA-MB-435 85.9 µM | MDA-N > 100 µM | MOLT-4 52.4 µM | NCI-H226 > 100 µM | OVCAR-5 > 100 µM | OVCAR-8 > 100 µM | SF-295 > 100 µM | SF-539 > 100 µM | T47D 79.4 µM | TK-10 > 100 µM

CC(=O)O[C@H]1CCC2[C@@H]3CCC4Cc5nc6c(nc5C[C@]4(C)C3CC[C@@]21C)CC1CC[C@@H]2C(CC[C@@]3(C)C2CC[C@@H]3C(C)CCCC(C)C)[C@@]1(C)C6 (some centres undefined)
inactive: 786-0 > 100 µM | ACHN > 100 µM | BT-549 > 100 µM | HCT-116 > 100 µM | HL-60 > 100 µM | HOP-62 > 100 µM | K562 > 100 µM | KM12 > 100 µM | M14 > 100 µM | MDA-MB-435 > 100 µM | MDA-N > 100 µM | MOLT-4 > 100 µM | NCI-H226 > 100 µM | OVCAR-5 > 100 µM | OVCAR-8 > 100 µM | SF-295 > 100 µM | SF-539 > 100 µM | T47D > 100 µM | TK-10 > 100 µM

CC/C=C/C(/C=C/C[C@]1(CC)C[C@H](CC)[C@H](CC(=O)O)OO1)CC (some centres undefined)
inactive: 786-0 1.67 µM | ACHN 1.91 µM | BT-549 6.28 µM | HCT-116 2.46 µM | HL-60 2.16 µM | HOP-62 1.58 µM | K562 3.04 µM | KM12 1.62 µM | M14 8.49 µM | MDA-MB-435 2.06 µM | MDA-N 1.85 µM | MOLT-4 2.31 µM | NCI-H226 20.8 µM | OVCAR-5 2.34 µM | OVCAR-8 2.9 µM | SF-295 2.16 µM | SF-539 1.82 µM | T47D 2.75 µM | TK-10 1.91 µM

COc1ccccc1NC(=O)CC(=O)n1nc(C)c(/N=N/c2ccccc2C(=O)O)c1C
inactive: 786-0 > 100 µM | DMS-273 > 100 µM | HCT-116 > 100 µM | HL-60 > 100 µM | HOP-62 85.9 µM | K562 97.1 µM | KM12 > 100 µM | M14 > 100 µM | MOLT-4 > 100 µM | OVCAR-5 > 100 µM | OVCAR-8 > 100 µM | SF-295 > 100 µM | SF-539 > 100 µM | TK-10 > 100 µM

Cc1ccc(NC(=O)OCC(COc2ccc(Cl)cc2Cl)OC(=O)Nc2ccc(C)cc2)cc1 (centres undefined)
inactive: 786-0 64.6 µM | ACHN > 100 µM | DMS-273 > 100 µM | HCT-116 > 100 µM | HOP-62 > 100 µM | KM12 > 100 µM | M14 > 100 µM | NCI-H226 46.3 µM | OVCAR-5 > 100 µM | OVCAR-8 12.5 µM | SF-295 > 100 µM | SF-539 89.5 µM

CC/C=C/c1cc2cc[nH]c2c2c1C(C)C[C@@H]2C (some centres undefined)
inactive: 786-0 18.9 µM | ACHN 73.5 µM | DMS-273 > 10 µM | HCT-116 15.7 µM | HL-60 26.7 µM | K562 25.1 µM | KM12 19.8 µM | M14 28.1 µM | MOLT-4 18.8 µM | NCI-H226 15.1 µM | OVCAR-8 26.1 µM | SF-295 24.4 µM | SF-539 21.8 µM | TK-10 53.6 µM

O=C(CC1(O)C(=O)Nc2ccccc21)c1ccc(Cl)cc1Cl (centres undefined)
inactive: 786-0 > 100 µM | ACHN > 100 µM | DMS-273 > 100 µM | HCT-116 > 100 µM | HL-60 > 100 µM | K562 > 100 µM | M14 > 100 µM | MOLT-4 > 100 µM | NCI-H226 71.6 µM | OVCAR-5 > 100 µM | OVCAR-8 > 100 µM | SF-295 > 100 µM | SF-539 > 100 µM | TK-10 > 100 µM

COc1ccc(/C=C2\CCC(CNc3cc(C)on3)C2=O)cc1 (centres undefined)
inactive: 786-0 > 100 µM | ACHN > 100 µM | BT-549 > 78.3 µM | HCT-116 > 100 µM | HL-60 > 21.5 µM | HOP-62 47.4 µM | K562 > 100 µM | KM12 > 100 µM | M14 > 100 µM | MDA-MB-435 > 100 µM | MDA-N > 100 µM | MOLT-4 > 100 µM | NCI-H226 > 100 µM | OVCAR-5 > 100 µM | OVCAR-8 > 100 µM | SF-295 74.6 µM | SF-539 > 100 µM | T47D 33 µM | TK-10 > 84.9 µM
